Laboratory results from the supplement of paper PMC8149375.

Key:
Conditions in all cases: treatment: drug + dasatinib (fixed dose, not stated); 5 days
CAKI-1 [1] = assay: minimum viability across doses, drug + dasatinib, relative to DMSO (fraction); higher = less growth inhibition
Description: (§1)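 Primary HTS combination arm: 8 RCC cell lines treated with 8 doses (up to 10 uM) of each library drug plus a fixed dose of dasatinib (dose not stated) for 5 days; viability read by CellTiter-Glo and normalised to DMSO. GI50 was fitted with XLfit, AUC is the area under the dose-response curve, and minimum viability is the lowest fraction of DMSO viability across doses.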

UO-31 [2] = assay: as above
Description: as §1

TK-10 [3] = assay: as above
Description: as §1

ACHN [4] = assay: as above
Description: as §1

SN12C [5] = assay: as above
Description: as §1

A498 [6] = assay: as above
Description: as §1

786-O [7] = assay: as above
Description: as §1

769-P [8] = assay: as above
Description: as §1

CAKI-1 [9] = assay: GI50 of drug in presence of dasatinib; higher = less potent
Description: as §1

UO-31 [10] = assay: as above
Description: as §1

TK-10 [11] = assay: as above
Description: as §1

ACHN [12] = assay: as above
Description: as §1

SN12C [13] = assay: as above
Description: as §1

A498 [14] = assay: as above
Description: as §1

769-P [15] = assay: as above
Description: as §1

CAKI-1 [16] = assay: AUC of dose-response viability curve, drug + dasatinib, normalised to DMSO (arbitrary (AUC of normalised viability)); higher = less growth inhibition
Description: as §1

UO-31 [17] = assay: as above
Description: as §1

TK-10 [18] = assay: as above
Description: as §1

ACHN [19] = assay: as above
Description: as §1

SN12C [20] = assay: as above
Description: as §1

A498 [21] = assay: as above
Description: as §1

786-O [22] = assay: as above
Description: as §1

769-P [23] = assay: as above
Description: as §1

786-O [24] = assay: GI50 of drug in presence of dasatinib; higher = less potent
Description: as §1

| SMILES | minimum viability across doses (CAKI-1 [1]) | minimum viability across doses (UO-31 [2]) | minimum viability across doses (TK-10 [3]) | minimum viability across doses (ACHN [4]) | minimum viability across doses (SN12C [5]) | minimum viability across doses (A498 [6]) | minimum viability across doses (786-O [7]) | minimum viability across doses (769-P [8]) | GI50 of drug (CAKI-1 [9]) | GI50 of drug (UO-31 [10]) | GI50 of drug (TK-10 [11]) | GI50 of drug (ACHN [12]) | GI50 of drug (SN12C [13]) | GI50 of drug (A498 [14]) | GI50 of drug (769-P [15]) | AUC of dose-response viability curve (CAKI-1 [16]) | AUC of dose-response viability curve (UO-31 [17]) | AUC of dose-response viability curve (TK-10 [18]) | AUC of dose-response viability curve (ACHN [19]) | AUC of dose-response viability curve (SN12C [20]) | AUC of dose-response viability curve (A498 [21]) | AUC of dose-response viability curve (786-O [22]) | AUC of dose-response viability curve (769-P [23]) | GI50 of drug (786-O [24]) |
| --- | --- | --- | --- | --- | --- | --- | --- | --- | --- | --- | --- | --- | --- | --- | --- | --- | --- | --- | --- | --- | --- | --- | --- | --- |
| Cc1ccc(NC(=O)c2cccc(N(C)C)c2)cc1NC(=O)c1ccc(O)cc1 + Cc1nc(Nc2ncc(C(=O)Nc3c(C)cccc3Cl)s2)cc(N2CCN(CCO)CC2)n1 [dasatinib] | 0.65 | 1.02 | 0.609 | 0.54 | 0.69 | 0.932 | 0.388 | 0.639 | > 10000 nM | > 10000 nM | > 10000 nM | > 10000 nM | > 10000 nM | > 10000 nM | > 10000 nM | 2.43 | 4.5 | 2.37 | 2.1 | 2.52 | 3.67 | 2 | 2.41 |  |
| O=C1NC(=O)C(c2ccccc2[N+](=O)[O-])=C1Nc1ccc(O)c(Cl)c1 + Cc1nc(Nc2ncc(C(=O)Nc3c(C)cccc3Cl)s2)cc(N2CCN(CCO)CC2)n1 [dasatinib] | 0.591 | 0.748 | 0.646 | 0.506 | 0.67 | 0.789 | 0.339 | 0.629 | > 10000 nM | > 10000 nM | > 10000 nM | > 10000 nM | > 10000 nM | > 10000 nM | > 10000 nM | 2.31 | 3.6 | 2.42 | 2.02 | 2.5 | 3.1 | 1.73 | 2.42 |  |
| CC(=O)Nc1cccc(-n2c(=O)n(C3CC3)c(=O)c3c(Nc4ccc(I)cc4F)n(C)c(=O)c(C)c32)c1 + Cc1nc(Nc2ncc(C(=O)Nc3c(C)cccc3Cl)s2)cc(N2CCN(CCO)CC2)n1 [dasatinib] | 0.0991 | 0.0585 | 0.235 | 0.216 | 0.243 | 0.306 | 0.321 | 0.196 | 54.2 nM | 159 nM | 78.7 nM | 8.4 nM | 86.2 nM |  | 217 nM | 1.29 | 1.88 | 1.58 | 1.2 | 1.58 | 1.96 | 1.48 | 1.68 | 21.7 nM |
| O=C(NC[C@H](O)CO)c1ccncc1Nc1ccc(I)cc1F + Cc1nc(Nc2ncc(C(=O)Nc3c(C)cccc3Cl)s2)cc(N2CCN(CCO)CC2)n1 [dasatinib] | 0.0863 | 0.0714 | 0.203 | 0.216 | 0.227 | 0.31 | 0.394 | 0.212 | 139 nM | 563 nM | 296 nM | 10.5 nM | 307 nM |  | 455 nM | 1.52 | 2.33 | 1.9 | 1.28 | 1.9 | 2.28 | 1.87 | 1.81 | 89.8 nM |
| C[C@@H](Oc1cc(-n2cnc3ccc(CN4CCN(C)CC4)cc32)sc1C(N)=O)c1ccccc1C(F)(F)F + Cc1nc(Nc2ncc(C(=O)Nc3c(C)cccc3Cl)s2)cc(N2CCN(CCO)CC2)n1 [dasatinib] | 0.0912 | 0.00496 | 0.171 | 0.0897 | 0.155 | 0.384 | 0.00468 | 0.0347 | 38.1 nM | 77.4 nM | 265 nM | 21.2 nM | 89.1 nM |  | 31 nM | 1.33 | 1.32 | 2.01 | 1.22 | 1.62 | 1.97 | 0.653 | 1.14 | 10.7 nM |
| Cn1cnc2c(F)c(Nc3ccc(Br)cc3Cl)c(C(=O)NOCCO)cc21 [AZD6244 (Selumetinib)] + Cc1nc(Nc2ncc(C(=O)Nc3c(C)cccc3Cl)s2)cc(N2CCN(CCO)CC2)n1 [dasatinib] | 0.129 | 0.143 | 0.477 | 0.343 | 0.0911 | 0.301 | 0.507 | 0.294 | 646 nM |  | 3540 nM | 83.2 nM | 1070 nM |  | 1200 nM | 1.77 | 2.32 | 2.38 | 1.64 | 1.84 | 2.11 | 2.26 | 2.1 | 1660 nM |
| Cc1cc(C(=O)NOCCO)c(Nc2ccc(I)cc2F)n(C)c1=O [AZD8330] + Cc1nc(Nc2ncc(C(=O)Nc3c(C)cccc3Cl)s2)cc(N2CCN(CCO)CC2)n1 [dasatinib] | 0.102 | 0.0965 | 0.262 | 0.18 | 0.212 | 0.318 | 0.323 | 0.219 | 56.5 nM |  | 108 nM | < 3 nM | 60.1 nM |  | 69.4 nM | 1.21 | 1.9 | 1.64 | 0.912 | 1.5 | 1.77 | 1.67 | 1.49 | 54.5 nM |
| CNC(=O)CN1CCC(Oc2cc3c(Nc4cccc(Cl)c4F)ncnc3cc2OC)CC1 [AZD8931] + Cc1nc(Nc2ncc(C(=O)Nc3c(C)cccc3Cl)s2)cc(N2CCN(CCO)CC2)n1 [dasatinib] | 0.332 | 0.344 | 0.277 | 0.233 | 0.569 | 0.284 | 0.262 | 0.15 | 2990 nM | 4660 nM | 477 nM | 11.4 nM | > 10000 nM | 1040 nM | 135 nM | 2.11 | 2.96 | 1.99 | 1.24 | 2.3 | 2.24 | 1.88 | 1.69 |  |
| Cc1ccc(NC(=O)c2ccc(CN3CCN(C)CC3)cc2)cc1Nc1nccc(-c2cccnc2)n1 [Imatinib (Gleevec)] + Cc1nc(Nc2ncc(C(=O)Nc3c(C)cccc3Cl)s2)cc(N2CCN(CCO)CC2)n1 [dasatinib] | 0.491 | 0.883 | 0.624 | 0.523 | 0.68 | 0.817 | 0.336 | 0.586 | 8890 nM | > 10000 nM | > 10000 nM | > 10000 nM | > 10000 nM | > 10000 nM | > 10000 nM | 2.22 | 3.84 | 2.45 | 2.06 | 2.55 | 3.24 | 1.67 | 2.43 |  |
| COc1cc(Nc2ncc3c(n2)-c2ccc(Cl)cc2C(c2c(F)cccc2OC)=NC3)ccc1C(=O)O [MLN8237 (Alisertib)] + Cc1nc(Nc2ncc(C(=O)Nc3c(C)cccc3Cl)s2)cc(N2CCN(CCO)CC2)n1 [dasatinib] | 0.0592 | 0.374 | 0.392 | 0.16 | 0.353 | 0.353 | 0.145 | 0.231 | 74.9 nM | 5320 nM | 2740 nM | 25 nM | 331 nM |  | 95.7 nM | 1.41 | 3.06 | 2.39 | 1.37 | 1.89 | 2.41 | 1.44 | 1.61 | 60.2 nM |
| CNC(=O)c1cc(Oc2ccc(NC(=O)Nc3ccc(Cl)c(C(F)(F)F)c3)c(F)c2)ccn1 [Regorafenib (BAY 73-4506)] + Cc1nc(Nc2ncc(C(=O)Nc3c(C)cccc3Cl)s2)cc(N2CCN(CCO)CC2)n1 [dasatinib] | 0.125 | 0.122 | 0.415 | 0.153 | 0.434 | 0.415 | 0.471 | 0.37 | 2980 nM | 4410 nM | 5850 nM | 3320 nM | 7180 nM | 2670 nM | 4040 nM | 2.24 | 2.77 | 2.45 | 2.05 | 2.47 | 3.1 | 2.26 | 2.3 |  |
| CS(=O)(=O)O.O=C(Nc1cccc(Cl)c1)Nc1ncc(CCNc2ncnc3ccsc23)s1 [SNS-314] + Cc1nc(Nc2ncc(C(=O)Nc3c(C)cccc3Cl)s2)cc(N2CCN(CCO)CC2)n1 [dasatinib] | 0.107 | 0.372 | 0.362 | 0.144 | 0.259 | 0.442 | 0.123 | 0.217 | 41.5 nM | 6020 nM | 3780 nM | 61.8 nM | 634 nM |  | 155 nM | 1.38 | 3.06 | 2.41 | 1.48 | 1.97 | 2.61 | 1.54 | 1.74 | 48.1 nM |
| CC(C)(O)CC(=O)NCCn1ccc2ncnc(Nc3ccc(Oc4cccc(C(F)(F)F)c4)c(Cl)c3)c21 [TAK-285] + Cc1nc(Nc2ncc(C(=O)Nc3c(C)cccc3Cl)s2)cc(N2CCN(CCO)CC2)n1 [dasatinib] | 0.311 | 0.224 | 0.346 | 0.172 | 0.556 | 0.83 | 0.338 | 0.22 | 2350 nM | 6240 nM | 568 nM | 12.7 nM | > 10000 nM | > 10000 nM | 1700 nM | 2.15 | 3.97 | 1.99 | 1.28 | 2.44 | 3.25 | 1.8 | 2.18 |  |
| Cn1c(=O)c(F)c(Nc2ccc(I)cc2F)c2c(=O)n(C[C@@H](O)CO)cnc21 [TAK-733] + Cc1nc(Nc2ncc(C(=O)Nc3c(C)cccc3Cl)s2)cc(N2CCN(CCO)CC2)n1 [dasatinib] | 0.0816 | 0.0313 | 0.199 | 0.222 | 0.192 | 0.355 | 0.36 | 0.201 | 29.7 nM | 200 nM | 138 nM | < 3 nM | 82.5 nM |  | 192 nM | 1.2 | 1.88 | 1.71 | 1.21 | 1.51 | 1.92 | 1.96 | 1.73 | 452 nM |
